# Reference: article PMC11878095, “Interspecies signaling modulates the biosynthesis of antimicrobial secondary metabolites related to biological control activities of Pseudomonas fluorescens 2P24” (Microbiology Spectrum, 2025)
# Biological target: T1, PhlH (2P24_PhlH) (Pseudomonas fluorescens, UniProt Q4JIX5)
# T1 construct: purified recombinant His6-tagged PhlH
# Assay: ITC ([…] °C, one-site model); EMSA shows PLT releases PhlH from phlG promoter DNA
# Format: binding
# T1 sequence (Q4JIX5 entry or part of it): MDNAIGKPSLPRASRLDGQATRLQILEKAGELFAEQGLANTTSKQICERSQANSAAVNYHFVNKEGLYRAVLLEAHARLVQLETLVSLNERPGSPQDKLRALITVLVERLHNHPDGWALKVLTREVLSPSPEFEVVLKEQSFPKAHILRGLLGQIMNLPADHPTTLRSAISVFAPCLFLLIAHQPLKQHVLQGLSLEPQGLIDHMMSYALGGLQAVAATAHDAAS
structure (smiles),measurement,value
"O=C(c1cc(Cl)c(Cl)[nH]1)c1c(O)cccc1O [PLT, pyoluteorin]",Kd,1000 nM
